# According to ChEMBL document CHEMBL4673243, “Discovery of 9-Cyclopropylethynyl-2-((S)-1-[1,4]dioxan-2-ylmethoxy)-6,7-dihydropyrimido[6,1-a]isoquinolin-4-one (GLPG1205), a Unique GPR84 Negative Allosteric Modulator Undergoing Evaluation in a Phase II Clinical Trial” (J Med Chem, 2020):
# Tests used:
# [1] = Initial plasma concentration in CD1 mouse at 1 mg/kg, iv administered as single bolus dose using PEG-200/saline formulation measured after 24 hrs by LC-MS/MS analysis
# [2] = in vitro; details: dog, liver microsomes
# [3] = molecular target: Cytochrome P450 3A4 (Homo sapiens, UniProt P08684); assay: Inhibition of human CYP3A4 in human liver microsomes using testosterone as substrate and in presence of co-factor preincubated for 20 mins followed by substrate addition by LC-MS/MS analysis
# Sequence of Cytochrome P450 3A4 (P08684 whole entry): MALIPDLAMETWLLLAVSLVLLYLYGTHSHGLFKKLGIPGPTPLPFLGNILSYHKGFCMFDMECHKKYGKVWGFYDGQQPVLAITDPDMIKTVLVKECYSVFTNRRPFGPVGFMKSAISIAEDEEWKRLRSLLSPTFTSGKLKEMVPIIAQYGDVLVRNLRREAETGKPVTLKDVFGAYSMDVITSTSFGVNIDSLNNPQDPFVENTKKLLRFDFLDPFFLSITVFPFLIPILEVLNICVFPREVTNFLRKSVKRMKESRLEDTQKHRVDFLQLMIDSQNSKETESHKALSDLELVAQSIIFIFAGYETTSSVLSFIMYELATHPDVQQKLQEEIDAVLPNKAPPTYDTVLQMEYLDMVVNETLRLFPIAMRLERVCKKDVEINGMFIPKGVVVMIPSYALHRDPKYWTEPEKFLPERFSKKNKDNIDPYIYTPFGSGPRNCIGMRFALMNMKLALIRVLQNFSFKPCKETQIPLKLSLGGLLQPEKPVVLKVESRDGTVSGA
# [4] = in vivo; details: CD1, mouse, po, 5 mg/kg
# [5] = in vitro; details: rat, cryopreserved hepatocytes
# [6] = Thermodynamic solubility of compound at pH 7.4; details: buffer
# [7] = in vitro; details: mouse, cryopreserved hepatocytes
# [8] = Initial plasma concentration in male Sprague-Dawley rat at 0.5 mg/kg, iv administered as single bolus dose using PEG-200/NaCl formulation measured after 24 hrs by LC-MS/MS analysis
# [9] = Inhibition of embelin-induced migration of human neutrophils preincubated for 30 mins followed by embelin addition and measured after 1 hr by ATPlite luminescence assay; details: Neutrophil
# [10] = in vitro; details: rat, cryopreserved hepatocytes; remark: listed apart in the source
# [11] = in vivo; details: Beagle, dog, po
# [12] = physchem; details: aqueous solution with 2% DMSO, pH 3
# [13] = in vivo; details: male, Sprague-Dawley, rat, po
# [14] = in vivo; details: CD1, mouse, iv, 1 mg/kg
# [15] = Inhibition of embelin-induced migration of rat neutrophils preincubated for 30 mins followed by embelin addition and measured after 1 hr by celltiter-glo assay; details: Neutrophil
# [16] = in vivo; details: male, Sprague-Dawley, rat, po; remark: listed apart in the source
# [17] = molecular target: Cytochrome P450 2C9 (Homo sapiens) (UniProt P11712)
# Sequence of Cytochrome P450 2C9 (Homo sapiens) (P11712 whole entry, looked up, the tested form may be a part): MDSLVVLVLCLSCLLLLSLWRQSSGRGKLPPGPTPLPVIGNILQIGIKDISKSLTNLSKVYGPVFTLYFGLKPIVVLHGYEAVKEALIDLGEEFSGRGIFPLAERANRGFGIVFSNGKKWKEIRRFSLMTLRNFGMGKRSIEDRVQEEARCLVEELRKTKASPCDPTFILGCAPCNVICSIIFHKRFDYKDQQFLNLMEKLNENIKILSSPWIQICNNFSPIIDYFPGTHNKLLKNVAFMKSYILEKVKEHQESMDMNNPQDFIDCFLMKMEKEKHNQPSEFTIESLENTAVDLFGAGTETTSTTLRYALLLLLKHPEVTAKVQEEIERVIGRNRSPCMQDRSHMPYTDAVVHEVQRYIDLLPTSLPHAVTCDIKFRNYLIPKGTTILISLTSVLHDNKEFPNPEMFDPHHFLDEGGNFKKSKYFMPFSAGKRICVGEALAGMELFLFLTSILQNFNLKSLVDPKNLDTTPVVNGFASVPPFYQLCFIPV
# [18] = Clearance in Beagle dog at 0.5 mg/kg, iv administered as 10 mins infusion via catheter by LC-MS/MS analysis; details: in vivo
# [19] = in vivo; details: male, Sprague-Dawley, rat, po; remark: listed apart in the source
# [20] = Plasma protein binding in dog at 5 uM measured after 4 hrs by LC-MS/MS analysis
# [21] = in vivo; details: male, Sprague-Dawley, rat, po; remark: listed apart in the source
# [22] = species on record: Mus musculus; assay: Antiinflammatory activity in Balb/cj mouse model of DSS-induced colitis assessed as minimum effective dose; details: read-out: MED
# [23] = in vitro; details: human, cryopreserved hepatocytes
# [24] = in vitro; details: mouse, cryopreserved hepatocytes; remark: listed apart in the source
# [25] = Half life in Beagle dog at 0.5 mg/kg, iv administered as 10 mins infusion via catheter by LC-MS/MS analysis; details: in vivo
# [26] = in vivo; details: Balb/c, mouse, plasma, po, 3 mg/kg
# [27] = Half-life in CD1 mouse at 1 mg/kg, iv administered as single bolus dose using PEG-200/saline formulation measured after 24 hrs by LC-MS/MS analysis; details: in vivo
# [28] = Half-life in plasma of Balb/c mouse model of DSS-induced colitis at 3 mg/kg, po administered using PEG-200/water formulation starting from day 1 to 11 measured by LC-MS analysis
structure (smiles),measurement,setting,value
O=c1nc(OC[C@@H]2COCCO2)cc2n1CCc1cc(C#CC3CC3)ccc1-2 [GLPG-1205],C0 at 24 h,[1],1.23 µg/mL
same,"CLint scaled at 0.5 h, 1 µM",[2],5.34 L/h/kg
same,IC50,[3],> 50 µM
same,AUC(0-t) at 24 h,[4],15.3 µg·h/mL
same,CLint scaled at 1 µM,[5],< 2 L/h/kg
same,solubility thermodynamic,[6],0.00775 mg/mL
same,CLint scaled at 1 µM,[7],< 4.37 L/h/kg
same,C0 at 24 h,[8],0.395 µg/mL
same,IC50,[9],0.011 µM
same,half-life at 1 µM,[10],> 3.33 h
same,Cmax,[11],0.558 µg/mL
same,solubility,[12],0.113 mg/mL
same,bioavailability at 24 h,[13],> 100%
same,AUC(0-t) at 24 h,[14],1.05 µg·h/mL
same,IC50,[15],0.111 µM
same,Cmax at 24 h,[16],1.16 µg/mL
same,IC50,[17],34.6 µM
same,clearance at […],[18],1.2 L/h/kg
same,AUC(0-t) at 24 h,[19],4.47 µg·h/mL
same,"fraction unbound at 4 h, 5 µM",[20],0.065
same,Tmax at 24 h,[21],1.5 h
same,minimal effective dose,[22],3 mg/kg
same,half-life at 1 µM,[23],> 3.33 h
same,half-life at 1 µM,[24],> 3.33 h
same,half-life at […],[25],1.4 h
same,AUC(0-t) at 24 h,[26],5.56 µg·h/mL
same,half-life at 24 h,[27],0.6 h
same,half-life,[28],2.9 h
